From patent publication US20170073337A1, “DIHYDROTHIAZINE AND DIHYDROOXAZINE DERIVATIVES HAVING BACE1 INHIBITORY ACTIVITY” (Shionogi & Co., Ltd., priority 2014, published 2017)
≈ marks a conversion by molar mass, not a printed value. Read-outs that look alike come from different tables or passages of the source.

Legend:
CYP3A4 = biological target: T1, CYP3A4 (Homo sapiens, UniProt P08684); experiment: CYP inhibition test (CYP3A4); format: in vitro ADME; conditions: pooled human liver microsomes; terfenadine hydroxylation
T1 construct: The commercially available pooled human liver microsomes are used as an enzyme resource; from tissue; host or cells: pooled human liver microsomes
Summary of the method: (§1)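 Pooled human liver microsomes (0.2 mg protein/mL) were incubated at 37 °C with NADPH, compound at 1, 5, 10, 20 μmol/L and marker substrates: tolbutamide 100 μmol/L (2C9), S-mephenytoin 50 μmol/L (2C19), dextromethorphan 5 μmol/L (2D6), terfenadine 1 μmol/L (3A4). Metabolites were measured by LC/MS/MS; IC50 came from logistic fitting against DMSO control.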

CYP1A2 = biological target: T2, CYP1A2 (Homo sapiens, UniProt P05177); experiment: CYP inhibition test (CYP1A2); format: in vitro ADME; conditions: pooled human liver microsomes; 7-ethoxyresorufin O-deethylation
T2 construct: The commercially available pooled human liver microsomes are used as an enzyme resource; from tissue; host or cells: pooled human liver microsomes
T2 sequence (P05177 1-516): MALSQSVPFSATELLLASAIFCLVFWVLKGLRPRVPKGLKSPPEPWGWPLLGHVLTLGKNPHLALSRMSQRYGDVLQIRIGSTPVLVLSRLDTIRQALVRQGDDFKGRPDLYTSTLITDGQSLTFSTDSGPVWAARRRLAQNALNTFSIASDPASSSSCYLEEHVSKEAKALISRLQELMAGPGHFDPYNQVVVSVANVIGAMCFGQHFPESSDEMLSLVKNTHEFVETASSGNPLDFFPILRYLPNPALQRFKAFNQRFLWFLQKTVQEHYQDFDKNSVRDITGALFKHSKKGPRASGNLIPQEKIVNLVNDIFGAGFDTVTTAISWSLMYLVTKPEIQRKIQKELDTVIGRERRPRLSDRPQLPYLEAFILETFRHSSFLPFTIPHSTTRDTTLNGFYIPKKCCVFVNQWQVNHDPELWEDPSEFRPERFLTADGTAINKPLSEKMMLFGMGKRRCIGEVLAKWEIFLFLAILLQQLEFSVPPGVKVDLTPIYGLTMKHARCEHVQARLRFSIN
Summary of the method: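 Inhibition of CYP1A2 was measured in commercially available pooled human liver microsomes (0.2 mg protein/mL) using 7-ethoxyresorufin O-deethylation with 0.5 μmol/L ethoxyresorufin. Test compound at 1, 5, 10, 20 μmol/L in […] Hepes buffer was incubated at 37° C. after NADPH addition; methanol/acetonitrile=1/1 (v/v) stopped the reaction, and resorufin was read fluorescently.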

CYP2C19 = biological target: T3, CYP2C19 (Homo sapiens, UniProt P33261); experiment: CYP inhibition test (CYP2C19); format: in vitro ADME; conditions: pooled human liver microsomes; mephenytoin 4′-hydroxylation
T3 construct: The commercially available pooled human liver microsomes are used as an enzyme resource; from tissue; host or cells: pooled human liver microsomes
Summary of the method: as §1

Solubility test = format: physicochemical
Summary of the method: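 Dissolved concentration determined by LC/MS or SPE/MS (absolute calibration) in diluted filtrates, after 2 μL of 10 mmol/L DMSO stock was added to 198 μL JP 1st or JP 2nd fluid and equilibrated either 1 h with shaking at room temperature or 16 h standing at 25 °C.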

Metabolic stability test = format: in vitro ADME; conditions: human liver microsomes, 37° C., 30 minutes, NADPH
Summary of the method: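 Parent compound was measured by LC/MS/MS or SPE/MS after a methanol/acetonitrile quench and reported as % remaining, with the 0 min sample set to 100%. Incubations ran 30 min at 37 °C in pH 7.4 Tris buffer containing pooled human liver microsomes at 0.5 mg protein/mL and 1 mmol/L NADPH.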

[1] = biological target: T4, human ether-a-go-go related gene (hERG) channel (Homo sapiens, UniProt Q12809); experiment: hERG test; format: cell-based; conditions: % inhibition of IKr tail peak current at 3 uM; CHO cells expressing hERG
T4 construct: expressed in transfected cells; host or cells: CHO cells
Summary of the method: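 Automated whole-cell patch clamp was run on CHO cells carrying human hERG, held at −80 mV. Current was recorded during the −50 mV repolarization (2 s) that followed a 2 s +20 mV step, after a −50 mV leak pulse.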

[2] = JP 1st fluid, 25 °C, pH 1.2, simulated gastric fluid, kinetic from dmso stock, read-out: JP1
[3] = JP 2nd fluid A, 25 °C, pH 6.8, aqueous buffer, kinetic from dmso stock, read-out: JP2_μM
[4] = JP 1st fluid, pH 1.2, simulated gastric fluid, kinetic from dmso stock, read-out: JP1
[5] = JP 2nd fluid B, pH 6.8, aqueous buffer, kinetic from dmso stock, read-out: JP2_μM
[6] = JP 2nd fluid A, pH 6.8, aqueous buffer, kinetic from dmso stock, read-out: JP2_μM
[7] = solubility in JP 2nd fluid B, 1% DMSO, *2: shaken for 1 hour at room temperature, read-out: JP2_μM

T4 sequence (Q12809 whole entry): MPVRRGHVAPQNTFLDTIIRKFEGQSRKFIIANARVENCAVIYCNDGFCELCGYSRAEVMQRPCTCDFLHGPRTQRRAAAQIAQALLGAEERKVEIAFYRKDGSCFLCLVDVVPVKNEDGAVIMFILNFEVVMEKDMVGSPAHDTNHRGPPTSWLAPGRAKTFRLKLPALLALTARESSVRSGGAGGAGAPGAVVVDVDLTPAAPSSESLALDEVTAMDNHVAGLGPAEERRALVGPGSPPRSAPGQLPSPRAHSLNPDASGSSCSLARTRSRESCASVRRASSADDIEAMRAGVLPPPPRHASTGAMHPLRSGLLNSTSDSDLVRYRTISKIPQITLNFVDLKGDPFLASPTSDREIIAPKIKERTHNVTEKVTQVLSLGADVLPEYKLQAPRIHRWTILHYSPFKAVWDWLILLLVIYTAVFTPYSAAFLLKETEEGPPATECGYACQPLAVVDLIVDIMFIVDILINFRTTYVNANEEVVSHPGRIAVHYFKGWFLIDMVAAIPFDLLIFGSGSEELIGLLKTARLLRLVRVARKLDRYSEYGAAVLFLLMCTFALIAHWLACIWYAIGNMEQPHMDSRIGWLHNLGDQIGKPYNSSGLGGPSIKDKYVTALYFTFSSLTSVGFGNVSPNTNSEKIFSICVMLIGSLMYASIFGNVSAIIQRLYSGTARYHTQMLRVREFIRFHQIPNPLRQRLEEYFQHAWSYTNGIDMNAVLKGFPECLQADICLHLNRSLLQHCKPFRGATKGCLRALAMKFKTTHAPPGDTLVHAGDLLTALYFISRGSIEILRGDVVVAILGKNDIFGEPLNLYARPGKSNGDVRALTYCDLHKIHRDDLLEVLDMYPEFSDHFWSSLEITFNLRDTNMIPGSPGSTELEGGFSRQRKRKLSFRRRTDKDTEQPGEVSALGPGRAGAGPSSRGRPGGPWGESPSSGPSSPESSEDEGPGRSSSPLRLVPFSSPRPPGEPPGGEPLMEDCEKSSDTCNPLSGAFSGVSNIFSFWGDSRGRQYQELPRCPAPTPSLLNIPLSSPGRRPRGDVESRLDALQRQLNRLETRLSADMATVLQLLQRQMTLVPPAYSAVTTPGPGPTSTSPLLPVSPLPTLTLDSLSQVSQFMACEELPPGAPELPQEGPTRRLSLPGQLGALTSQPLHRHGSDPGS
T1 sequence (P08684 whole entry): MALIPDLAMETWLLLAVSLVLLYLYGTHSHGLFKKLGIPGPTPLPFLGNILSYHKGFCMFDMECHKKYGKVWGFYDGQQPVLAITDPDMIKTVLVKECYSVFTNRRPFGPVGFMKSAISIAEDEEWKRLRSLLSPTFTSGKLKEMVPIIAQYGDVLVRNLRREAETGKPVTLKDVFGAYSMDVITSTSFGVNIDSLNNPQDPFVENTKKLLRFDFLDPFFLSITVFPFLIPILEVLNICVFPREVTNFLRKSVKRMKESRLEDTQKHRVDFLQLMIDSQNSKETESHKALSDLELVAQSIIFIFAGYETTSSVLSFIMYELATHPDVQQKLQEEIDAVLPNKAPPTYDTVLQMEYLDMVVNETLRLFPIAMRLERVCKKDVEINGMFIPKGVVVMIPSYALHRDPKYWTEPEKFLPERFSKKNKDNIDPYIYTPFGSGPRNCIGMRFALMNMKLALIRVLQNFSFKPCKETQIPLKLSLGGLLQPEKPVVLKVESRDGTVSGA
T3 sequence (P33261 whole entry): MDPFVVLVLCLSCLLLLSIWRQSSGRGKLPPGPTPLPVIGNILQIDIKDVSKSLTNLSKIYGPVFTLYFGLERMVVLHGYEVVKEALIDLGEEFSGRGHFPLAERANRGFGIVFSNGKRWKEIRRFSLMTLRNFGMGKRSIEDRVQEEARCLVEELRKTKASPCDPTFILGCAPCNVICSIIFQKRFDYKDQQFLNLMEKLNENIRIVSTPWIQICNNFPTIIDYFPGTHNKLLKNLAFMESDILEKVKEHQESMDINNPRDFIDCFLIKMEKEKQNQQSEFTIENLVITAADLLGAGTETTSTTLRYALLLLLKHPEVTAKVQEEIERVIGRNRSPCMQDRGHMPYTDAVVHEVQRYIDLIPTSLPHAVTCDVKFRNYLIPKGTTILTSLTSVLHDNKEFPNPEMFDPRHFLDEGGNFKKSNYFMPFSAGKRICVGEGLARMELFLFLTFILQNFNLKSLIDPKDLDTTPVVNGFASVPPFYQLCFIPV

Compound | IC50 (CYP3A4) | IC50 (CYP1A2) | IC50 (CYP2C19) | solubility kinetic at 16 h (Solubility test; [2]) | solubility kinetic at 16 h (Solubility test; [3]) | remaining % (Metabolic stability test) | hERG_3 uM_% [1] | solubility kinetic at 1 h (Solubility test; [4]) | solubility kinetic at 1 h (Solubility test; [5]) | solubility kinetic at 1 h (Solubility test; [6]) | solubility kinetic at 16 h (Solubility test; [7])
CO[C@H]1[C@@H](CF)OC(N)=N[C@]1(C)c1cc(NC(=O)c2ccc(F)cn2)ccc1Cl [Compound I-20] | ≥ 20 µM | ≥ 20 µM | ≥ 20 µM | 38.9 µM (≈ 16.5 µg/mL) | > 50 µM | 75.4% | 30.4% |  |  |  | 
C[C@]1(c2cc(NC(=O)c3cnc(OCF)cn3)ccc2F)N=C(N)S[C@H](CO)[C@@H]1F [Compound I-109] | ≥ 20 µM | ≥ 20 µM | ≥ 20 µM |  |  | 86.8% | 11% | > 50 µM | 19 µM (≈ 8.39 µg/mL) |  | 
CO[C@H]1[C@@H](CF)OC(N)=N[C@]1(C)c1cc(NC(=O)c2ccc(F)cn2)ccc1F [Compound I-25] | ≥ 20 µM | ≥ 20 µM | ≥ 20 µM | 46.7 µM (≈ 19.1 µg/mL) | > 50 µM | 89.1% | 41.9% |  |  |  | 
C[C@]1(c2cc(NC(=O)c3ccc(C#N)cn3)ccc2F)N=C(N)O[C@H](C(F)(F)C2CC2)[C@@H]1F [Compound I-81] | ≥ 10 µM | ≥ 20 µM | ≥ 20 µM |  |  | 101% | 49.3% | > 50 µM | 19.3 µM (≈ 8.91 µg/mL) |  | 
CC(F)(F)[C@H]1OC(N)=N[C@](C)(c2cc(NC(=O)c3ccc(C#N)cn3)ccc2F)[C@H]1F [Compound I-40] | ≥ 20 µM | ≥ 20 µM | ≥ 20 µM |  |  | 106% | 48.4% | > 50 µM |  | > 50 µM | 
CO[C@H]1[C@@H](C)SC(N)=N[C@]1(C)c1cc(NC(=O)c2ccc(F)cn2)ccc1F [Compound I-89] | ≥ 20 µM | ≥ 20 µM | ≥ 20 µM |  |  | 86.7% | 42.7% | > 50 µM |  |  | >50 µM
C[C@H]1SC(N)=N[C@](C)(c2cc(NC(=O)c3ncc(OCC(F)(F)F)cn3)ccc2F)[C@H]1F [Compound I-53] | ≥ 20 µM | ≥ 20 µM | ≥ 20 µM |  |  | 109% | 47.9% | > 50 µM |  |  | >50 µM
COc1cnc(C(=O)Nc2ccc(F)c([C@@]3(C)N=C(N)O[C@H](C(F)F)[C@@H]3C)c2)cn1 [Compound I-86] | ≥ 20 µM | ≥ 20 µM | ≥ 20 µM |  |  | 67.5% | 23.8% | > 50 µM |  | > 50 µM | 
C[C@H]1[C@H](C(F)(F)F)OC(N)=N[C@]1(C)c1cc(NC(=O)c2ccc(C#N)cn2)ccc1F [Compound I-29] | ≥ 20 µM | ≥ 10 µM | ≥ 20 µM | 35 µM (≈ 15.2 µg/mL) | > 50 µM | 98.2% | 45.4% |  |  |  | 
C[C@@H](F)[C@H]1OC(N)=N[C@](C)(c2cc(NC(=O)c3ccc(C#N)cn3)ccc2F)[C@H]1F [Compound I-15] | ≥ 20 µM | ≥ 20 µM | ≥ 20 µM |  |  | 104% | 57% | 31.9 µM (≈ 13.3 µg/mL) |  | > 50 µM | 
COc1cnc(C(=O)Nc2ccc(F)c([C@@]3(C)N=C(N)O[C@H]([C@@H](C)F)[C@@H]3F)c2)cn1 [Compound I-71] | ≥ 20 µM | ≥ 20 µM | ≥ 20 µM |  |  | 63% | 17% | > 50 µM |  | > 50 µM | 
COc1cnc(C(=O)Nc2ccc(F)c([C@@]3(C)N=C(N)O[C@H](C(C)(F)F)[C@@H]3F)c2)cn1 [Compound I-42] | ≥ 20 µM | ≥ 20 µM | ≥ 20 µM |  |  | 68.2% | 15.5% | > 50 µM |  | > 50 µM | 
C[C@]1(c2cc(NC(=O)c3ccc(F)cn3)ccc2F)N=C(N)OCC12CC(F)(F)C2 [Compound I-45] | ≥ 20 µM | ≥ 20 µM | ≥ 20 µM | 35.8 µM (≈ 15.1 µg/mL) | > 50 µM | 93.5% | 51.6% |  |  |  | 
CO[C@H]1[C@@H](C)SC(N)=N[C@]1(C)c1cc(NC(=O)c2ccc(C#N)cn2)ccc1F [Compound I-88] | ≥ 20 µM | ≥ 20 µM | ≥ 20 µM |  |  | 83.5% | 45.6% | > 50 µM |  |  | >50 µM
CC[C@H]1SC(N)=N[C@](C)(c2cc(NC(=O)c3cnc(OCF)cn3)ccc2F)[C@H]1F [Compound I-66] | ≥ 10 µM | ≥ 20 µM | ≥ 20 µM |  |  | 67% | 27.1% | > 50 µM |  |  | >50 µM
CO[C@H]1[C@@H](CF)OC(N)=N[C@]1(C)c1cc(NC(=O)c2cnc(OCF)cn2)ccc1Cl [Compound I-19] | ≥ 20 µM | ≥ 20 µM | ≥ 20 µM | 37.1 µM (≈ 16.9 µg/mL) | > 50 µM | 69.9% | 18.8% |  |  |  | 
C[C@H]1SC(N)=N[C@](C)(c2cc(NC(=O)c3coc(CF)n3)ccc2F)[C@H]1F [Compound I-49] | ≥ 20 µM | ≥ 20 µM | ≥ 20 µM |  |  | 95.4% | 27.2% | > 50 µM |  | > 50 µM | 
CO[C@H]1[C@@H](CF)OC(N)=N[C@]1(C)c1cc(NC(=O)c2ccc(C#N)cn2)ccc1Cl [Compound I-18] | ≥ 20 µM | ≥ 20 µM | ≥ 20 µM | 36 µM (≈ 15.5 µg/mL) | > 50 µM | 71.4% | 44.8% |  |  |  | 
C[C@@H]1[C@@H](C(F)(F)F)OC(N)=N[C@]1(C)c1cc(NC(=O)c2ccc(C#N)cn2)ccc1F [Compound I-27] | ≥ 20 µM | ≥ 20 µM | ≥ 20 µM | 39.7 µM (≈ 17.3 µg/mL) | > 50 µM | 84.7% | 28.8% |  |  |  | 
C[C@H]1SC(N)=N[C@](C)(c2nc(NC(=O)c3cnc(OCF)cn3)ccc2F)[C@H]1F [Compound I-3] | ≥ 20 µM | ≥ 20 µM | ≥ 20 µM | > 50 µM | > 50 µM | 81.4% | 45.5% |  |  |  | 
CC[C@H]1SC(N)=N[C@](C)(c2cc(NC(=O)c3ccc(F)cn3)ccc2F)[C@H]1F [Compound I-70] | ≥ 10 µM | ≥ 20 µM | ≥ 20 µM |  |  | 74.3% | 58.6% | > 50 µM |  |  | >50 µM
CO[C@H]1[C@@H](C)SC(N)=N[C@]1(C)c1cc(NC(=O)c2cnc(OCF)cn2)ccc1F [Compound I-87] | ≥ 20 µM | ≥ 20 µM | ≥ 20 µM |  |  | 81% | 13.8% | > 50 µM |  |  | >50 µM
